From patent US20260109707A1, “HETEROBIFUNCTIONAL COMPOUNDS AND METHODS OF TREATING DISEASE” (Halda Therapeutics OpCo. Inc., priority 2022, published 2026)
Like-named read-outs stand apart in the source and are kept apart here.

Assays:
[1] = test system: T-Rex 293 cell line SC3 cells lacking increased expression of androgen receptor protein; experiment: Cellular growth inhibition assay, T-Rex 293 SC3 cells without doxycycline (CellTiter-Glo, 72 hours); type: cell-based; conditions: T-Rex 293 cell line SC3 cells not exposed to doxycycline (lacking increased androgen receptor expression)
Outline: (§1)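 Doxycycline (10 ng/mL) was either included or omitted to toggle wild-type androgen receptor expression in SC3 cells, a T-Rex 293 clone, grown in stripped-serum, phenol red-free medium. After 72 hours with compound, viable cells were quantified by CellTiter-Glo 2.0.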

[2] = test system: T-Rex 293 cell line SC3 cells having increased expression of androgen receptor protein due to exposure to doxycycline; experiment: Cellular growth inhibition assay, T-Rex 293 SC3 cells with doxycycline (CellTiter-Glo, 72 hours); type: cell-based; conditions: T-Rex 293 SC3 cells with increased androgen receptor expression due to doxycycline (10 ng/mL)
Outline: as §1

VCaP cells = experiment: Cellular growth inhibition assay for VCaP cells (CellTiter-Glo, 72 hours); type: cell-based, human
Outline: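 Luminescent viability signal after 72 h of compound exposure gave GI50 values by four-parameter nonlinear regression. Compounds were added in 0.5% DMSO to cells plated 24 h earlier at 5000/well in DMEM containing 10% FBS.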

T47D cells = experiment: Cellular growth inhibition assay for T47D cells (CellTiter-Glo, 72 hours); type: cell-based, human; conditions: 72 hours treatment
Outline: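 Luminescence from CellTiter-Glo 2.0 after 72 h of compound exposure gives the viability signal. Cells grew in insulin-supplemented (0.2 units/mL) DMEM with 10% FBS and were treated one day after seeding at 0.5% DMSO. GI50 values come from four-parameter nonlinear regression.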

SMILES | GI50 (VCaP cells; Homo sapiens, VCaP, 72 h) [nM] | GI50 (T47D cells; Homo sapiens, T47D, 72 h) [nM] | GI50 (VCaP cells) [nM] | GI50 (T47D cells) [nM] | GI50 ([1]; 72 h) [nM] | GI50 ([2]; 72 h) [nM] | GI50 [1] [nM] | GI50 [2] [nM]
Cc1sc2c(c1C)C(c1ccc(C3CC([C@@H]4CCCN(c5ccc(C(=O)N[C@H]6CC[C@H](Oc7ccc(C#N)c(Cl)c7)CC6)nn5)C4)C3)cc1)=N[C@@H](Cc1ncco1)c1nnc(C)n1-2 (some centres unmarked) [I-378] | < 500 | 500 to 1500 |  |  | > 3000 | < 500 |  | 
Cc1sc2c(c1C)C(c1ccc(N(C)CC(=O)NCc3ccc(C(=O)N[C@H]4CC[C@H](Oc5ccc(C#N)c(Cl)c5)CC4)nn3)cc1)=N[C@@H](Cc1ncco1)c1nnc(C)n1-2 [I-332] | > 3000 | > 3000 |  |  | > 3000 | > 3000 |  | 
Cc1sc2c(c1C)C(c1ccc(CC3CC4(CCCN(c5ccc(C(=O)N[C@H]6CC[C@H](Oc7ccc(C#N)c(Cl)c7)CC6)nn5)C4)C3)cc1)=N[C@@H](C)c1nnc(C)n1-2 (some centres unmarked) [I-338] | < 500 | 500 to 1500 |  |  | > 3000 | < 500 |  | 
Cc1sc2c(c1C)C(c1ccc(C[C@@H]3CC[C@]4(C3)CN(c3ccc(C(=O)N[C@H]5CC[C@H](Oc6ccc(C#N)c(Cl)c6)CC5)nn3)CCO4)cc1)=NC(Cc1ncco1)c1nnc(C)n1-2 (some centres unmarked) [I-288] | < 500 | < 500 |  |  | < 500 | < 500 |  | 
Cc1sc2c(c1C)C(c1ccc(OC[C@H]3C[C@@]4(CCCN(c5ccc(C(=O)N[C@H]6CC[C@H](Oc7ccc(C#N)c(Cl)c7)CC6)nn5)C4)C3)cn1)=N[C@@H](Cc1ncco1)c1nnc(C)n1-2 [I-340] | < 500 | < 500 |  |  | < 500 | < 500 |  | 
Cc1sc2c(c1C)C(c1ccc(N3CCC[C@H](C(=O)NCc4ccc(C(=O)N[C@H]5CC[C@H](Oc6ccc(C#N)c(Cl)c6)CC5)nn4)C3)cc1)=N[C@@H](Cc1ncco1)c1nnc(C)n1-2 [I-294] | < 500 | < 500 |  |  | > 3000 | < 500 |  | 
Cc1sc2c(c1C)C(c1ccc([C@H]3CCN(C(=O)[C@H]4CCCN(c5ccc(C(=O)N[C@H]6CC[C@H](Oc7ccc(C#N)c(Cl)c7)CC6)nn5)C4)C3)cc1)=N[C@@H](Cc1ncco1)c1nnc(C)n1-2 [I-345] | < 500 | 500 to 1500 |  |  | > 3000 | < 500 |  | 
Cc1sc2c(c1C)C(c1ccc(C[C@H]3CC[C@@]4(CCCN(c5ccc(C(=O)N[C@H]6CC[C@H](Oc7ccc(C#N)c(Cl)c7)CC6)nn5)C4)C3)cc1)=N[C@@H](Cc1ncco1)c1nnc(C)n1-2 [I-123] | 1500 to 3000 | 1500 to 3000 |  |  | > 3000 | 1500 to 3000 |  | 
Cc1sc2c(c1C)C(c1ccc(OC3CC4(CCCN(c5ccc(C(=O)N[C@H]6CC[C@H](Oc7ccc(C#N)c(Cl)c7)CC6)nn5)C4)C3)nc1)=N[C@@H](Cc1ncco1)c1nnc(C)n1-2 (some centres unmarked) [I-247] | < 500 | < 500 |  |  | < 500 | < 500 |  | 
Cc1sc2c(c1C)C(c1ccc(OC[C@H]3CCCN(c4ccc(C(=O)N[C@H]5CC[C@H](Oc6ccc(C#N)c(Cl)c6)CC5)nn4)C3)cc1)=N[C@@H](Cc1ncco1)c1nnc(C)n1-2 [I-219] | 500 to 1500 | 1500 to 3000 |  |  | 1500 to 3000 | < 500 |  | 
Cc1sc2c(c1C)C(c1ccc(OC[C@H]3C[C@]4(CCCN(c5ccc(C(=O)N[C@H]6CC[C@H](Oc7ccc(C#N)c(Cl)c7)CC6)nn5)C4)C3)cc1)=N[C@@H](Cc1ncco1)c1nnc(C)n1-2 [I-104] |  |  | < 500 | < 500 |  | < 500 | < 500 | 
Cc1sc2c(c1C)C(c1ccc(O[C@H]3CC[C@]4(CCCN(c5ccc(C(=O)N[C@H]6CC[C@H](Oc7ccc(C#N)c(Cl)c7)CC6)nn5)C4)C3)cc1)=N[C@@H](Cc1ncco1)c1nnc(C)n1-2 [I-97] | < 500 | < 500 |  |  | < 500 | < 500 |  | 
Cc1sc2c(c1C)C(c1ccc(C[C@H]3C[C@@]4(CCCN(c5ccc(C(=O)N[C@H]6CC[C@H](Oc7ccc(C#N)c(Cl)c7)CC6)nn5)C4)C3)cc1)=N[C@@H](Cc1ncco1)c1nnc(C)n1-2 [I-118] | 1500 to 3000 | 1500 to 3000 |  |  | > 3000 | > 3000 |  | 
Cc1sc2c(c1C)C(c1ccc(N3CCC4(CCCN(c5ccc(C(=O)N[C@H]6CC[C@H](Oc7ccc(C#N)c(Cl)c7)CC6)nn5)C4)CC3)nc1)=N[C@@H](C)c1nnc(C)n1-2 [I-428] | < 500 | 500 to 1500 |  |  | > 3000 | < 500 |  | 

More lines, main results first:

GI50 (VCaP cells; Homo sapiens, VCaP, 72 h) [nM] | GI50 (T47D cells; Homo sapiens, T47D, 72 h) [nM] | GI50 (VCaP cells) [nM] | GI50 (T47D cells) [nM] | SMILES | GI50 ([1]; 72 h) [nM] | GI50 ([2]; 72 h) [nM] | GI50 [1] [nM] | GI50 [2] [nM]
< 500 | < 500 |  |  | Cc1sc2c(c1C)C(c1ccc(C=C3CC4(CCCN(c5ccc(C(=O)NC6CCC(Oc7ccc(C#N)c(Cl)c7)CC6)nn5)C4)C3)cc1)=N[C@@H](Cc1ncco1)c1nnc(C)n1-2 (stereo partly drawn) [I-142, N-[4-(3-chloro-4-cyano-phenoxy)cyclohexyl]-6-[2-[[4-[(9S)-4,5,13-trimethyl-9-(oxazol-2-ylmethyl)-3-thia-1,8,11,12-tetrazatricyclo[8.3.0.02,6]trideca-2(6),4,7,10,12-pentaen-7-yl]phenyl]methylene]-6-azaspiro[3.5]nonan-6-yl]pyridazine-3-carboxamide] | < 500 | < 500 |  | 
 |  | < 500 | > 3000 | Cc1sc2c(c1C)C(c1ccc(N3CCC4(CCCN(c5ccc(C(=O)N[C@H]6CC[C@H](Oc7ccc(C#N)c(Cl)c7)CC6)nn5)C4)CC3)cc1)=N[C@@H](C)c1nnc(C)n1-2 [I-429] |  |  | > 3000 | < 500
< 500 | 500 to 1500 |  |  | Cc1sc2c(c1C)C(c1ccc(N3CC(C4CCN(c5ccc(C(=O)N[C@H]6CC[C@H](Oc7ccc(C#N)c(Cl)c7)CC6)nn5)CC4)C3)cc1)=N[C@@H](C)c1nnc(C)n1-2 [I-434] | < 500 | < 500 |  | 
< 500 | < 500 |  |  | Cc1sc2c(c1C)C(c1ccc(O[C@H]3CC[C@@]4(CCCN(c5ccc(C(=O)N[C@H]6CC[C@H](Oc7ccc(C#N)c(Cl)c7)CC6)nn5)C4)C3)cc1)=N[C@@H](Cc1ncco1)c1nnc(C)n1-2 [I-96] | < 500 | < 500 |  | 
< 500 | < 500 |  |  | Cc1sc2c(c1C)C(c1ccc(CC[C@H]3CC[C@@]4(CCCN(c5ccc(C(=O)N[C@H]6CC[C@H](Oc7ccc(C#N)c(Cl)c7)CC6)nn5)C4)C3)cc1)=N[C@H](Cc1ncco1)c1nnc(C)n1-2 [I-215] | < 500 | < 500 |  | 
> 3000 | > 3000 |  |  | Cc1sc2c(c1C)C(c1ccc([C@@H]3CCN(C(=O)[C@H]4CCCN(c5ccc(C(=O)N[C@H]6CC[C@H](Oc7ccc(C#N)c(Cl)c7)CC6)nn5)C4)C3)cc1)=N[C@@H](Cc1ncco1)c1nnc(C)n1-2 [I-344] | > 3000 | > 3000 |  | 
500 to 1500 | > 3000 |  |  | Cc1sc2c(c1C)C(c1ccc(C(C)(C)N3CC4(CCCN(c5ccc(C(=O)N[C@H]6CC[C@H](Oc7ccc(C#N)c(Cl)c7)CC6)nn5)C4)C3)cc1)=N[C@@H](Cc1ncco1)c1nnc(C)n1-2 [I-392] | > 3000 | < 500 |  | 
> 3000 | > 3000 |  |  | Cc1sc2c(c1C)C(c1ccc(C(=O)N(C)CCCc3ccc(C(=O)N[C@H]4CC[C@H](Oc5ccc(C#N)c(Cl)c5)CC4)nn3)cc1)=N[C@@H](Cc1ncco1)c1nnc(C)n1-2 [I-320] | > 3000 | > 3000 |  | 
< 500 | < 500 |  |  | Cc1sc2c(c1C)C(c1ccc(C[C@H]3CC[C@@]4(C3)CN(c3ccc(C(=O)N[C@H]5CC[C@H](Oc6ccc(C#N)c(Cl)c6)CC5)nn3)CCO4)cc1)=N[C@@H](Cc1ncco1)c1nnc(C)n1-2 [I-267] | < 500 | < 500 |  | 
